# In ChEMBL document CHEMBL1201862, “PubChem BioAssay data set” (2004):
#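 48-hour exposure; five concentrations; linearly interpolated endpoints. GI50 = concentration required for 50% inhibition of growth.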 Calls of active or inactive are those of the source. Cut-off read from the data, not from the text of the source: active = GI50 up to about 1.1 µM and inactive = higher. Where a SMILES comes first, the peptide text is derived from it. The star is where a group is joined. CH2Cl = ClC*
# What was measured:
# Experiment in all cases: inhibition of tumour cell growth, NCI panel, 48 h
# Malme-3M = system: Malme-3M
# NCI/ADR-RES = system: NCI/ADR-RES
# SK-MEL-28 = system: SK-MEL-28
# PC-3 = system: PC-3
# DU-145 = system: DU-145
# HCT-116 = system: HCT-116
# NCI-H522 = system: NCI-H522
# NCI-H460 = system: NCI-H460
# RXF 393 = system: RXF 393
# ACHN = system: ACHN
# EKVX = system: EKVX
# CAKI-1 = system: CAKI-1
# KM12 = system: KM12
# HL-60 = system: HL-60
# MDA-MB-231 = system: MDA-MB-231
# UACC-257 = system: UACC-257
# SK-MEL-5 = system: SK-MEL-5
# OVCAR-5 = system: OVCAR-5
# OVCAR-4 = system: OVCAR-4
# SW-620 = system: SW-620
SMILES,GI50 (Malme-3M),GI50 (NCI/ADR-RES),GI50 (SK-MEL-28),GI50 (PC-3),GI50 (DU-145),GI50 (HCT-116),GI50 (NCI-H522),GI50 (NCI-H460),GI50 (RXF 393),GI50 (ACHN),GI50 (EKVX),GI50 (CAKI-1),GI50 (KM12),GI50 (HL-60),GI50 (MDA-MB-231),GI50 (UACC-257),GI50 (SK-MEL-5),GI50 (OVCAR-5),GI50 (OVCAR-4),GI50 (SW-620)
CC[P+](c1ccccc1)(N(C)C)N(C)C,> 100 µM (inactive),> 100 µM (inactive),> 100 µM (inactive),60.5 µM (inactive),> 100 µM (inactive),> 100 µM (inactive),89.5 µM (inactive),> 100 µM (inactive),> 100 µM (inactive),> 100 µM (inactive),> 100 µM (inactive),> 100 µM (inactive),> 100 µM (inactive),> 100 µM (inactive),> 100 µM (inactive),> 100 µM (inactive),54.5 µM (inactive),> 100 µM (inactive),> 100 µM (inactive),> 100 µM (inactive)
CN(C)CCCc1c[nH]c2ccccc12,> 100 µM (inactive),> 100 µM (inactive),> 100 µM (inactive),> 100 µM (inactive),> 100 µM (inactive),> 100 µM (inactive),> 100 µM (inactive),> 100 µM (inactive),> 100 µM (inactive),> 100 µM (inactive),> 100 µM (inactive),> 100 µM (inactive),> 100 µM (inactive),> 100 µM (inactive),> 100 µM (inactive),> 100 µM (inactive),> 100 µM (inactive),> 100 µM (inactive),> 100 µM (inactive),> 100 µM (inactive)
COC(=O)c1ccccc1C1CN=NC12Cc1c(ccc(C)c1C)C2=O (stereo not given),> 100 µM (inactive),> 100 µM (inactive),> 100 µM (inactive),90.6 µM (inactive),> 100 µM (inactive),> 100 µM (inactive),> 100 µM (inactive),> 100 µM (inactive),> 100 µM (inactive),> 100 µM (inactive),> 100 µM (inactive),> 100 µM (inactive),> 100 µM (inactive),> 100 µM (inactive),81.5 µM (inactive),> 100 µM (inactive),> 100 µM (inactive),> 100 µM (inactive),42.3 µM (inactive),> 100 µM (inactive)
COc1ccc(C2=NNC(=O)c3ccccc3N2c2nc(-c3cccs3)nc3ccc(Br)cc23)cc1,25.2 µM (inactive),19.1 µM (inactive),> 100 µM (inactive),24.7 µM (inactive),39.9 µM (inactive),69.5 µM (inactive),64.9 µM (inactive),40.4 µM (inactive),68.4 µM (inactive),61.2 µM (inactive),24.6 µM (inactive),76.2 µM (inactive),61.5 µM (inactive),> 100 µM (inactive),43.2 µM (inactive),51.9 µM (inactive),> 100 µM (inactive),61.4 µM (inactive),39.8 µM (inactive),91.4 µM (inactive)
CC(=O)NC(CC(C)C)C(=O)NC(Cc1ccccc1)C(=O)CCl (stereo not drawn) (Ac-Leu-Phe-CH2Cl; configuration not given here),5.05 µM (inactive),10.9 µM (inactive),10.6 µM (inactive),14 µM (inactive),12.1 µM (inactive),5.22 µM (inactive),2.51 µM (inactive),20.8 µM (inactive),1.96 µM (inactive),11.1 µM (inactive),21.1 µM (inactive),17.4 µM (inactive),18.7 µM (inactive),2.21 µM (inactive),12.1 µM (inactive),7.73 µM (inactive),8.02 µM (inactive),17.5 µM (inactive),18.3 µM (inactive),2.67 µM (inactive)
O=C(N/N=C/c1c(-c2ccccc2)no[n+]1[O-])N1CCOCC1,> 100 µM (inactive),> 100 µM (inactive),> 100 µM (inactive),> 100 µM (inactive),> 100 µM (inactive),> 100 µM (inactive),> 100 µM (inactive),> 100 µM (inactive),> 100 µM (inactive),> 100 µM (inactive),> 100 µM (inactive),> 100 µM (inactive),> 100 µM (inactive),23.3 µM (inactive),> 100 µM (inactive),> 100 µM (inactive),> 100 µM (inactive),> 100 µM (inactive),> 100 µM (inactive),> 100 µM (inactive)
Cc1n(Cc2ccccc2)c2c([n+]1C)C(=O)c1ccccc1C2=O,0.0171 µM (active),21.1 µM (inactive),0.0948 µM (active),0.0838 µM (active),0.156 µM (active),0.0416 µM (active),0.027 µM (active),0.108 µM (active),0.294 µM (active),0.873 µM (active),0.181 µM (active),3.15 µM (inactive),0.0605 µM (active),0.0318 µM (active),0.0583 µM (active),0.034 µM (active),0.0211 µM (active),0.167 µM (active),0.0401 µM (active),0.0455 µM (active)
CO/C(=N\N=C\c1ccccc1F)c1ccncc1,> 10 µM (inactive),> 10 µM (inactive),–,> 10 µM (inactive),> 10 µM (inactive),> 10 µM (inactive),> 10 µM (inactive),> 10 µM (inactive),> 10 µM (inactive),> 10 µM (inactive),> 10 µM (inactive),> 10 µM (inactive),> 10 µM (inactive),> 10 µM (inactive),> 10 µM (inactive),> 10 µM (inactive),–,> 10 µM (inactive),> 10 µM (inactive),> 10 µM (inactive)
O=c1cc(-c2ccccc2)[nH]c2ccc(N3CCOCC3)cc12,14 µM (inactive),0.0435 µM (active),0.0128 µM (active),0.0346 µM (active),0.038 µM (active),< 0.0167 µM (active),0.0173 µM (active),0.0465 µM (active),0.04 µM (active),0.0611 µM (active),53 µM (inactive),0.0291 µM (active),< 0.0171 µM (active),0.0151 µM (active),0.0618 µM (active),> 100 µM (inactive),< 0.0233 µM (active),–,20.1 µM (inactive),0.0371 µM (active)
CC(C)C1OC(/C=C/c2ccccc2)OCC1(C)C (stereo not given),0.91 µM (active),41.6 µM (inactive),53.3 µM (inactive),37.1 µM (inactive),37.2 µM (inactive),25.4 µM (inactive),13.8 µM (inactive),17.1 µM (inactive),18.1 µM (inactive),32.2 µM (inactive),27.5 µM (inactive),31.8 µM (inactive),31 µM (inactive),19.9 µM (inactive),36.4 µM (inactive),24.8 µM (inactive),17.7 µM (inactive),44.5 µM (inactive),33.6 µM (inactive),30.7 µM (inactive)
CN(C)c1ccc(C2=C([O-])c3cc(-[n+]4ccccc4)ccc3C2=O)cc1,> 100 µM (inactive),> 100 µM (inactive),> 100 µM (inactive),> 100 µM (inactive),> 100 µM (inactive),> 100 µM (inactive),> 100 µM (inactive),> 100 µM (inactive),> 100 µM (inactive),> 100 µM (inactive),> 100 µM (inactive),> 100 µM (inactive),> 100 µM (inactive),> 100 µM (inactive),> 100 µM (inactive),> 100 µM (inactive),> 100 µM (inactive),> 100 µM (inactive),> 100 µM (inactive),> 100 µM (inactive)
O=C(NNC(=O)c1ccccc1SSc1ccccc1C(=O)NNC(=O)c1ccccc1S)c1ccccc1S,21.6 µM (inactive),20 µM (inactive),24.3 µM (inactive),24.6 µM (inactive),6.55 µM (inactive),7.18 µM (inactive),0.49 µM (active),10.4 µM (inactive),64.9 µM (inactive),19.3 µM (inactive),15 µM (inactive),12.9 µM (inactive),30.5 µM (inactive),1.73 µM (inactive),19.6 µM (inactive),27.7 µM (inactive),39.7 µM (inactive),44.5 µM (inactive),31.1 µM (inactive),12 µM (inactive)
CN(C)c1ccc2nc3c(C(=O)O)cc(O)c(O)c3[o+]c2c1,6.49 µM (inactive),28.7 µM (inactive),43 µM (inactive),36.5 µM (inactive),31.8 µM (inactive),24.9 µM (inactive),5.48 µM (inactive),24.8 µM (inactive),24.6 µM (inactive),31.5 µM (inactive),26.4 µM (inactive),52.8 µM (inactive),26.9 µM (inactive),22.3 µM (inactive),33 µM (inactive),14.8 µM (inactive),15.3 µM (inactive),65.3 µM (inactive),29 µM (inactive),31 µM (inactive)
COc1cc(C2c3cc4c(cc3OC(NN)C2C)OCO4)cc(OC)c1OC (stereo not given),0.34 µM (active),1.06 µM (active),50.8 µM (inactive),0.556 µM (active),1.94 µM (inactive),0.473 µM (active),0.869 µM (active),0.489 µM (active),0.593 µM (active),1.78 µM (inactive),10.2 µM (inactive),3.36 µM (inactive),0.466 µM (active),0.323 µM (active),4.09 µM (inactive),–,0.478 µM (active),–,23.6 µM (inactive),0.447 µM (active)
